PubChem BioAssay AID493130 (Broad Institute, 2011)
Records with an inconclusive call do not appear. The source made the active and inactive calls.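 Rule for the calls: active = signal-lowering compounds whose fitted half-maximal concentration is at most ten times their highest tested dose; inconclusive = flat fit between -30 and -70%, or poor fit; inactive = flat within 30%, signal rising, or potency beyond limit.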

Each compound was assayed against POS-1 (Caenorhabditis elegans) binding to mex-3 RNA (assay: inhibitors of POS-1/mex-3 RNA binding, dose response, counter-screen for MEX-5 RNA-binding inhibitor project, biochemical, fluorescence polarization, cherry-picked samples, set 2 (AID 493130;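 note: POS-1 as maltose binding protein fusion made in E. coli with FITC RNA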)). Settings: POS-1/mex-3 RNA fluorescence polarization, 1 h.

| Structure (SMILES) | AC50 |
| --- | --- |
| O=C(O)c1ccc(Cl)c2c1C1C=CCC1C(c1ccccn1)N2 (stereo unspecified) | 8.69 µM |
| Cc1ccc(O)c(C(=O)c2cc(C#N)c(=O)n(-c3nccs3)c2)c1 | 4.09 µM |
| O=c1ccc2cc3c([nH]c4ccc(Br)cc43)oc-2c1O | 1.64 µM |
| CC1(C)CC(=O)C2=C(C1)N=c1s/c(=C/c3ccc(F)c(F)c3)c(=O)n1C2c1ccc(F)cc1 (stereo unspecified) | > 10 µM (inactive) |
| O=C(O)c1ccccc1NS(=O)(=O)c1cccc(-n2sc3ccccc3c2=O)c1 | 8.72 µM |
| CCCC1=NN2C(=N)/C(=C\c3ccc(SCc4ccco4)o3)C(=O)N=C2S1 | 0.699 µM |
| Cc1ccc(-c2cc(C(=O)Nc3ccc(S(=O)(=O)Nc4ncccn4)cc3)[nH]n2)c(O)c1C | 5.29 µM |

Same assay, conditions: POS-1/mex-3 RNA fluorescence polarization, 1 h; at 10 µM (top of the series)

| Structure (SMILES) | activity change, negative = inhibition |
| --- | --- |
| O=c1[nH]c(=S)n(-c2ccc(Cl)cc2)c(O)c1C=Nc1ccc(N2CCOCC2)cc1 | inactive |
| COc1ccc(/C=C2\SC(=S)N(CCCC(=O)Nc3ccccn3)C2=O)cc1OC | inactive |
| COC(=O)c1cc2c(-c3ccccc3)cc3ccccn3c-2c1C(=O)OC | inactive |
| COc1cc(/C=N/NC(=S)Nc2cccc(C(=O)O)c2)ccc1O | inactive |
| COc1cc(C(=O)NC(=S)NNC(=O)c2cnccn2)cc(OC)c1OC | inactive |
| O=C(O)CSc1ncnc2nc[nH]c12 | inactive |
| CC(C)CNC(=O)c1ccccc1Oc1ccccc1 | inactive |
| CCc1ccc(S(=O)(=O)Nc2ccc(O)c3c(=O)cc(-c4ccccc4Cl)oc23)cc1 | inactive |
| O=C1CS/C(=N\NC(=O)c2ccccc2)N1 | inactive |
| COCC(C)N1CCC(n2nccc2NC(=O)CCCc2ccccc2)CC1 (stereo unspecified) | inactive |
| O=C(CCN1C(=O)/C(=C/c2ccccc2Cl)SC1=S)NNC(=O)c1ccccc1O | inactive |
| Cn1cc(CNC(=O)C2c3ccccc3Oc3ccccc32)cn1 | inactive |
| COc1cc(/C=C2/C(=O)NN(c3ccc(Cl)c(Cl)c3)C2=O)cc([N+](=O)[O-])c1O | inactive |
| O=C(N/N=C/c1cccnc1)c1ccccc1 | inactive |
| CCCOc1ccc([C@@H]2C3CN(C(=O)OCC)CC=C3C(C#N)=C(N)C2(C#N)C#N)cc1OC (stereo partly specified) | inactive |
| O=C(O)c1[nH]c2ccccc2c1C(c1cc(Br)ccc1O)c1c(C(=O)O)[nH]c2ccccc12 | inactive |
| O=c1[nH]cnc2c1C(c1ccccc1[N+](=O)[O-])c1c(nc[nH]c1=O)O2 | inactive |
| O=C(O)CC1S/C(=N/N=C/c2ccc(-c3ccccc3[N+](=O)[O-])o2)NC1=O (stereo unspecified) | inactive |
| Nc1ccc(S(=O)(=O)NNC(=O)C(=O)NNc2ccccn2)cc1 | inactive |
| Cc1cc2n(n1)C(c1c[nH]c3ccccc13)Nc1ccccc1-2 (stereo unspecified) | inactive |
| CC1CN2C(c3ccc(Cl)cc3)=CSC2=N1 (stereo unspecified) | inactive |
| CC(C)=CCc1c(O)cc(O)c2c(=O)c(O[C@@H]3O[C@@H](C)[C@H](O)[C@@H](O)[C@H]3O)c(-c3ccc(O)cc3)oc12 | inactive |
| COc1ccc(N=Nc2c(C)[nH][nH]c2=O)cc1 | inactive |
| CC1(N2CCOCC2)CC2(O)C(=[N+]1[O-])CCc1c2no[n+]1[O-] (stereo unspecified) | inactive |
| C=CCOc1ccc(C(c2c(C(=O)O)[nH]c3ccccc23)c2c(C(=O)O)[nH]c3ccccc23)cc1 | inactive |

| Structure (SMILES) | activity change, negative = inhibition |
| --- | --- |
| CC(C)c1ccc(N2C(=O)/C(=C/N(C)C)SC2=S)cc1 | inactive |
| O=[N+]([O-])c1ccc(O)c(C=Nc2ccc3c(c2)OCCO3)c1 | inactive |
| COc1ccccc1N1C(=O)C2C(C(=O)c3ccccc3)=NN(c3ccccc3OC)C2C1=O (stereo unspecified) | inactive |
| CC(C)N1CCc2c(sc(NC(=O)c3ccc(S(=O)(=O)N4CCCCC4C)cc3)c2C(N)=O)C1 (stereo unspecified) | inactive |
| CC1(OC(=O)c2ccc(Cl)nc2)C(=O)C=C2C=C(c3ccc(C#N)cc3)OC=C2C1=O (stereo unspecified) | inactive |
| O=C(O)c1ccc(NCc2cccnc2)cc1 | inactive |
| CC(=O)CSc1ncnc2nc[nH]c12 | inactive |
| CCc1ccc(S(=O)(=O)/N=C2\C=C(Nc3ccc(C(=O)O)cc3)C(=O)c3ccccc32)cc1 | inactive |
| CCCc1nc2c(=O)n(C)c(=O)[nH]c2n1C | inactive |
| COC(=O)C1CSc2[nH]c(=O)sc2C1c1ccc(O)c(OC)c1 (stereo unspecified) | inactive |
| Nc1c(C(=O)Nc2cccc(Cl)c2Cl)sc2nc(-c3cccnc3)ccc12 | inactive |
| FC(F)(F)c1ccc(Cl)c(-n2c(-c3cc(-c4ccco4)[nH]n3)n[nH]c2=S)c1 | inactive |
| O=C(NC1CCSc2ccccc21)c1ccc([N+](=O)[O-])cc1 (stereo unspecified) | inactive |
| O=C(NNC(=O)c1ccco1)c1csc(N2CCOCC2)n1 | inactive |
| O=C(N/N=C/c1oc(O)c2ccccc12)c1ccccc1O | inactive |
| O=C(CCN1C(=O)/C(=C\c2ccco2)SC1=S)Nc1ccc(C(=O)O)c(O)c1 | inactive |
| CCOC(=O)C1CCN(c2nc(N)c3c(N)nc(SCC(=O)O)cc3c2C#N)CC1 | inactive |
| COc1cc(/C=C/c2nc(-c3ccccc3O)n[nH]2)cc(OC)c1OC | inactive |
| CN1CN(C)c2ccc([N+](=O)[O-])c3cccc1c23 | inactive |
| O=C(/C=C/Nc1ccc(S(=O)(=O)Nc2cnc3ccccc3n2)cc1)c1ccccc1 | inactive |
| CCOC(=O)CCCc1sc(N)nc1-c1[nH]c(=O)[nH]c1C | inactive |
| O=C(CCCN1C(=O)/C(=C/c2ccccc2Cl)SC1=S)NNC(=O)c1ccc(Cl)cc1 | inactive |
| CC1CN(Cc2c(O)ccc3c2oc(=O)c2ccccc23)CC(C)O1 (stereo unspecified) | inactive |
| NC(=O)C(=O)N/N=C1\CCc2ccccc21 | inactive |
| Cc1cc(/C=C(\C#N)c2nc3ccccc3[nH]2)c(C)n1C | inactive |

| Structure (SMILES) | activity change, negative = inhibition |
| --- | --- |
| CC1=Nc2ccc(C)cc2/C1=C/c1c(N)n2c(S(=O)(=O)C(C)C)nsc2nc1=O | inactive |
| CC[n+]1c(/C=C/C=C/c2ccc(N(C)C)cc2)sc2ccccc21 | inactive |
| CC(=O)Nc1ccc(/C=C/c2nc(-c3ccccc3O)n[nH]2)cc1 | inactive |
| O=C(N/N=C/c1ccncc1)c1cc([N+](=O)[O-])cc([N+](=O)[O-])c1O | inactive |
| CCOC(=O)C1CSc2[nH]c(=O)sc2C1c1ccccc1 (stereo unspecified) | inactive |
| O=C(Nc1nccs1)c1ccc(-c2ccc(Cl)cc2)o1 | inactive |
| C[C@H](O)CC1=C[C@H](O)[C@@H](C)OC1=O | inactive |
| Cc1nc2nc(-c3ccc(Cl)cc3)cn2nc1C | inactive |
| O=C(C1=NN(c2ccccc2)C2C(=O)N(c3ccccc3)C(=O)C12)c1ccccc1 (stereo unspecified) | inactive |
| O=C1C(Cl)=C(NC2CCCCC2)C(=O)N1c1ccc(Cl)cc1 | inactive |
| O=C(O)CCCCCN1C(=O)C(O)=C(C(=O)/C=C/c2ccccc2)C1c1ccccc1[N+](=O)[O-] (stereo unspecified) | inactive |
| COc1ccc(C2NC(=O)N(CCCC(=O)O)C(C)=C2C(=O)OCc2ccccc2)cc1 (stereo unspecified) | inactive |
| COc1ccccc1-n1c(C)nc2cc(C(=O)NCc3ccc4c(c3)OCO4)ccc21 | inactive |
| CCc1nnc2c(N(C)C)nc3ccccc3n12 | inactive |
| CSc1nsc2nc(=O)c(/C=C3\C(C)=Nc4ccc(C)cc43)c(N)n12 | inactive |
| CCOC(=O)CC1=C(C(=O)OCC)C(c2ccc(OC)cc2OC)C(C#N)=C(N)O1 (stereo unspecified) | inactive |
| Cc1nc2ccc(NC(=O)NC(=O)c3c(Cl)cccc3Cl)cc2o1 | inactive |
| O=C(CSc1nnc(COc2ccccc2)o1)Nc1nccs1 | inactive |
| CC1=Nc2cccc3cccc(c23)N1C | inactive |
| Cc1ccc(C(=O)N/N=C/c2ccc(-c3ccc(Br)cc3[N+](=O)[O-])o2)o1 | inactive |
| COc1ccc(NC(=O)c2coc(C)c2)cc1 | inactive |
| Cc1cc(C)c[n+](-c2[nH]c(=O)sc2/C=N/N=C(\N)[S-])c1 | inactive |
| CCN(CC)c1ccc(N2C(=O)c3ccccc3C2=O)cc1 | inactive |
| C=CCc1cccc2cc(C(=O)NNC(=O)CC#N)c(=O)oc12 | inactive |
